# Columns and labels:
# Format in all cases: cell-based
# T-47D cells = assay: Inhibition of cell proliferation in T-47D cells (CCK-8); details: 6 days treatment, CCK-8 cell viability
# In short: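 Viability by CCK-8 after a 6-day, 37 °C/5% CO2 exposure of T-47D cells (3,000/well, RPMI-1640 + 10% FBS) to graded PROTAC concentrations. Inhibition rates gave the IC50.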
# ERα [1] = target: T1, ERα (Homo sapiens, UniProt P03372); assay: ERα degradation in T-47D cells (Western blot); details: 4 hours
# T1 sequence (P03372 1-595): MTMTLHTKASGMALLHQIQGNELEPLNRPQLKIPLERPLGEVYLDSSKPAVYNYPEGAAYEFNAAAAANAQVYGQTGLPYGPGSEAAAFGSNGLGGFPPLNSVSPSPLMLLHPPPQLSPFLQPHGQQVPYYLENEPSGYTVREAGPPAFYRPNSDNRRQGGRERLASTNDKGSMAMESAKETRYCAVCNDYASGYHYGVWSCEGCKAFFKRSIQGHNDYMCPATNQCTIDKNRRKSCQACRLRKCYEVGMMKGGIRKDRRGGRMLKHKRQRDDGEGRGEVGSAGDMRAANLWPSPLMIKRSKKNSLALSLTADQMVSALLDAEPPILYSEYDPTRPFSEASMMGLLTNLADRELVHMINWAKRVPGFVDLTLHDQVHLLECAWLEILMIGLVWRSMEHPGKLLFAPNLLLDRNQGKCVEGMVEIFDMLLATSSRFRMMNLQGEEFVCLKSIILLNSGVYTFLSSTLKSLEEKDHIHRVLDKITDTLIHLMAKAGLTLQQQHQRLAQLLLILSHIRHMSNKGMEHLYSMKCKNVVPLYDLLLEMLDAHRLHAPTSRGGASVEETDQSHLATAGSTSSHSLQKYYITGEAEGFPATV
# Experimental: (§1) Western blotting: The total protein concentration in the collected cell lysate supernatant was determined using the BCA protein concentration assay kit (enhanced) (P0009, Beyotime). Based on the total protein concentration determined by BCA, the protein concentration was adjusted to 1 µg/µL using RIPA lysis buffer and 5× SDS-PAGE protein loading buffer (MB01015, GenScript). The protein was denatured in a 95°C water bath for 5 minutes. After denaturation, the condensed water on the tube wall was collected by centrifugation and used as the loading sample. 20µL of the loading sample (20 µg of total protein) was added to the sample well of a 12% precast gel (M00669, GenScript). Electrophoresis was performed at 100 V for 20 minutes, followed by switching to 150 V for 40 minutes. After electrophoresis, the proteins from the SDS-PAGE gel were transferred to a PVDF membrane at a constant voltage of 100 V for 60 minutes. After transfer, the PVDF membrane corresponding to the ERα protein and internal reference protein was cut and incubated in 1× QµickBlock blocking buffer (P0252, Beyotime) for 30 minutes at room temperature on a shaker. After blocking, the ERα primary antibody (1:1000, 8644S, CST) was added and incubated overnight at 4°C on a shaker. The PVDF membrane was washed three times with 1× TBST buffer for 5 minutes each. Rabbit IgG (H+L) secondary antibody (1:7500, SA5-35571, Invitrogen) was added and incubated for 1 hour at room temperature on a shaker. The membrane was then washed again three times with 1× TBST buffer for 5 minutes each. Finally, the membrane was imaged using a dual-color infrared laser imaging system (Odyssey DLx, LICOR). Protein maps were analyzed for grayscale value using Image Studio Lite software. The grayscale correction value for each sample was calculated using the formula: grayscale correction value = grayscale value of the target protein / grayscale value of the corresponding internal reference. Then the grayscale correction values of the compound group and the control group were compared to calculate the degradation rate of the compound. Table 4 Degradation rate of ERα by PROTAC compounds of the present invention and positive control in MCF-7 cells (%)
# Test Example 5 Degradation of ERα by the PROTAC compounds disclosed in the present invention in T-47D cells
# T-47D (ATCC) cells were cultured in PRMI-1640 medium (30-2001, ATCC) containing 10% FBS (10099141C, Gibco) at 37°C and 5% CO2 until they entered the logarithmic growth phase. T-47D cells were seeded at a density of 3×10^5 cells/well in a 6-well plate and incubated at 37°C, 5% CO2 for 24 hours. After cell attachment, 1 µL of compound dimethyl sulfoxide solution (final concentration 0.15-1000 nM) was added and incubated for another 4 hours at 37°C, 5% CO2 incubator. After 4 hours, the culture medium was discarded, and each well was washed once with 1 mL of pre-chilled 1× DPBS. The cells were then lysed with 50 µL of RIPA lysis buffer (P0013B, Beyotime) and 1× protease inhibitor cocktail (P1005, Beyotime). After incubation on ice for 20 minutes, the cells were centrifuged at 14,000 g at 4°C for 30 minutes. The supernatant was carefully collected and analyzed for ERα protein levels by immunoblotting. Table 5 Degradation rate of ERα by PROTAC compounds of the present invention and positive control sample in T-47D cells (%)
# MCF-7 cells = assay: Inhibition of cell proliferation in MCF-7 cells (CCK-8); details: MCF-7 cell proliferation, 6 days treatment
# In short: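 IC50 from CCK-8 viability-based inhibition after 6-day treatment of MCF-7 cells (800 cells/well, 10% FBS DMEM, 37 °C, 5% CO2) with serially varied compound concentrations.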
# ERα [2] = target: T1, ERα; assay: ERα degradation in MCF-7 cells (Western blot); parameters: host or cells: MCF-7; details: 4 hours
# Experimental: Test Example 4 Effect of PROTAC Compounds Disclosed in the Present Invention on ERα Degradation in MCF-7 Cells
# MCF-7 (ATCC) cells were cultured in DMEM medium (11995-065, Gibco) containing 10% FBS (10099141C, Gibco) at 37°C and 5% CO2 until they entered the logarithmic growth phase. MCF-7 cells were plated at a density of 3×10^5 cells/well in a 6-well plate and incubated at 37°C, 5% CO2 for 24 hours. After cell attachment, 1µL of compound in dimethyl sulfoxide (final concentration 0.15-1000nM) was added and incubated for another 4 hours at 37°C, 5% CO2 incubator. After 4 hours, the culture medium was discarded, and each well was washed once with 1 mL of pre-chilled 1× DPBS. The cells were then lysed with 50 µL of RIPA lysis buffer (P0013B, Beyotime) and 1× protease inhibitor cocktail (P1005, Beyotime). After incubation on ice for 20 minutes, the cells were centrifuged at 14,000 g at 4°C for 30 minutes. The supernatant was carefully collected and analyzed for ERα protein levels by immunoblotting.
# as §1
Compound,"IC50 (T-47D cells; Homo sapiens, T47D, 144 h)",Degradation rate of ERα in T-47D cells (%) (ERα [1]; 1nM),Degradation rate of ERα in T-47D cells (%) (ERα [1]; 10nM),"IC50 (MCF-7 cells; Homo sapiens, MCF7, 144 h)",Degradation rate of ERα in MCF-7 cells (%) (ERα [2]; 1nM),Degradation rate of ERα in MCF-7 cells (%) (ERα [2]; 10nM),IC50 (T-47D cells),IC50 (MCF-7 cells)
Cn1c(=O)n(C2CCC(=O)NC2=O)c2cc3c(cc21)C1(CCN(C2CCC4(CC2)CN(c2ccc([C@@H]5c6ccc(O)cc6CC[C@@H]5c5ccccc5)cc2)C4)CC1)CO3 (stereo partly drawn) [ER-P-59],0.96 nM,40%,63%,0.875 nM,14%,18%,,
"O=C1CCC(Nc2ccc3c(c2)OC2(CC3)CCN(C[C@H]3CC[C@@H](OC4CCN(c5ccc([C@@H]6c7ccc(O)cc7CC[C@@H]6c6ccccc6)cc5)CC4)CC3)CC2)C(=O)N1 (stereo partly drawn) [ER-P-43, 3-((1'-(((1S,4s)-4-((1-(4-((1R,2S)-6-hydroxy-2-phenyl-1,2,3,4-tetrahydronaphthalen-1-yl)phenyl)piperidin-4-yl)oxy)cyclohexyl)methyl)spiro[chromane-2,4'-piperidin]-7-yl)amino)piperidine-2,6-dione]",95.1 nM,10%,-1%,1070 nM,-13%,-19%,,
Cn1c(=O)n(C2CCC(=O)NC2=O)c2cc3c(cc21)C1(CCN(C(=O)C2CN(CC4CCN(c5ccc([C@@H]6c7ccc(O)cc7CC[C@@H]6c6ccccc6)cc5)CC4)C2)CC1)CO3 (stereo partly drawn) [ER-P-26],0.51 nM,58%,70%,125 nM,43%,40%,,
"CN(C(=O)CN1CCC2(CC1)COc1c2ccc2c1n(C)c(=O)n2C1CCC(=O)NC1=O)C1CCC2(CC1)CN(c1ccc([C@@H]3c4ccc(O)cc4CC[C@@H]3c3ccccc3)cc1)C2 (stereo partly drawn) [ER-P-64, 2-(3-(2,6-dioxopiperidin-3-yl)-1-methyl-2-oxo-2,3-dihydro-1H,7H-spiro[benzofuro[6,7-d]imidazole-6,4'-piperidin]-1'-yl)-N-(2-(4-((1R,2S)-6-hydroxy-2-phenyl-1,2,3,4-tetrahydronaphthalen-1-yl)phenyl)-2-azaspiro[3.5]nonan-7-yl)-N-methylacetamide]",1.5 nM,56%,80%,231 nM,46%,57%,,
"Cn1c(=O)n(C2CCC(=O)NC2=O)c2ccc3c(c21)OCC31CCN(C2CC3(CCN(c4ccc([C@@H]5c6ccc(O)cc6CC[C@@H]5c5ccccc5)cc4)CC3)C2)CC1 (stereo partly drawn) [ER-P-17, 3-(1'-(7-(4-((1R,2S)-6-hydroxy-2-phenyl-1,2,3,4-tetrahydronaphthalen-1-yl)phenyl)-7-azaspiro[3.5]nonan-2-yl)-1-methyl-2-oxo-1,2-dihydro-3H,7H-spiro[benzofuro[6,7-d]imidazole-6,4'-piperidin]-3-yl)piperidine-2,6-dione]",,22%,30%,,37%,33%,20.9 nM,4560 nM
"CN(c1ccc2c(c1)COC[C@H]1CN(CC3CCC(OC4CCN(c5ccc([C@@H]6c7ccc(O)cc7CC[C@@H]6c6ccccc6)cc5)CC4)CC3)CCN21)C1CCC(=O)NC1=O (stereo partly drawn) [ER-P-53, 3-(((R)-3-((4-((1-(4-((1R,2S)-6-hydroxy-2-phenyl-1,2,3,4-tetrahydronaphthalen-1-yl)phenyl)piperidin-4-yl)oxy)cyclohexyl)methyl)-1,2,3,4,4a,5-hexahydro-7H-benzo[e]pyrazino[2,1-c][1,4]oxazepin-9-yl)(methyl)amino)piperidine-2,6-dione]",,18%,33%,,10%,21%,252 nM,1310 nM
"CN(c1ccc2c(c1)OCC21CCN(C[C@H]2CC[C@@H](OC3CCN(c4ccc([C@@H]5c6ccc(O)cc6CC[C@@H]5c5ccccc5)cc4)CC3)CC2)CC1)C1CCC(=O)NC1=O (stereo partly drawn) [ER-P-32, 3-((1'-(((1S,4s)-4-((1-(4-((1R,2S)-6-hydroxy-2-phenyl-1,2,3,4-tetrahydronaphthalen-1-yl)phenyl)piperidin-4-yl)oxy)cyclohexyl)methyl)-2H-spiro[benzofuran-3,4'-piperidin]-6-yl)(methyl)amino)piperidine-2,6-dione]",19.5 nM,-2%,15%,705 nM,12%,13%,,
"O=C1CCC(N2Cc3c(ccc4c3OCC43CCC4(CC3)CN(C3CCC5(CC3)CN(c3ccc([C@@H]6c7ccc(O)cc7CC[C@@H]6c6ccccc6)cc3)C5)C4)C2=O)C(=O)N1 (stereo partly drawn) [ER-P-10, 3-(1-(2-(4-((1R,2S)-6-hydroxy-2-phenyl-1,2,3,4-tetrahydronaphthalen-1-yl)phenyl)-2-azaspiro[3.5]nonan-7-yl)-6'-oxo-6',8'-dihydro-2'H,7'H-dipyrazole[azetidine-3,1'-cyclohexane-4',3""-furo[2,3-e]isoindol]-7'-yl)piperidine-2,6-dione]",1.63 nM,51%,77%,8.53 nM,24%,57%,,

# Reference: patent EP4722219A1 (Gan & Lee Pharmaceuticals Co., Ltd., priority 2023, dated 2024)
